# According to PubChem BioAssay (NCI):
#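 96-well plates; 48 h exposure; 5 concentrations. Endpoints by linear interpolation between flanking doses. Not reached: highest tested concentration assigned. The concentration for 50% growth inhibition is given as GI50. The concentration for full growth arrest is given as TGI.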
# Legend:
# Experiment in all cases: inhibition of tumour cell growth, NCI panel, 48 h
# BT-549 breast = tested on: BT-549 breast
# DU-145 prostate = tested on: DU-145 prostate
# HS 578T breast = tested on: HS 578T breast
# MCF7 breast = tested on: MCF7 breast
# MDA-MB-435 = tested on: MDA-MB-435
# NCI/ADR-RES ovarian = tested on: NCI/ADR-RES ovarian
SMILES,TGI (BT-549 breast),TGI (DU-145 prostate),TGI (HS 578T breast),TGI (MCF7 breast),TGI (MDA-MB-435),TGI (NCI/ADR-RES ovarian),GI50 (BT-549 breast),GI50 (DU-145 prostate),GI50 (HS 578T breast),GI50 (MCF7 breast),GI50 (MDA-MB-435),GI50 (NCI/ADR-RES ovarian)
COc1cc(C(=O)O)c([N+](=O)[O-])c(OC)c1OC,> 100 µM,> 100 µM,> 100 µM,> 100 µM,> 100 µM,> 100 µM,–,–,–,–,–,–
Nc1nc(N)[n+]([O-])c(N)c1NCO,> 100 µM,> 100 µM,> 100 µM,> 100 µM,> 100 µM,> 100 µM,–,–,–,–,–,–
Cn1cc(-c2ccc(=O)n(Cc3cccc(-c4ncc(OCCN5CCOCC5)cn4)c3)n2)cn1,> 100 µM,> 100 µM,> 100 µM,> 100 µM,> 100 µM,> 100 µM,32.1 µM,> 100 µM,> 100 µM,39.5 µM,61.8 µM,37.5 µM
COC(=O)c1cnc(=O)n(C2CC(O)C(CO)O2)c1 (centres undefined),> 100 µM,> 100 µM,> 100 µM,> 100 µM,> 100 µM,> 100 µM,> 100 µM,> 100 µM,> 100 µM,> 100 µM,> 100 µM,> 100 µM
COc1cc(-c2cc(C(=O)N3CCN(C(=O)c4ccccc4NCc4ccco4)CC3)nc3cc(-c4ccccc4)nn23)cc(OC)c1OC,> 100 µM,–,> 29.3 µM,> 100 µM,1.61 µM,> 31.8 µM,4.27 µM,–,3.1 µM,0.92 µM,0.309 µM,1.2 µM
Cc1cc2c(C)c3cc(C)c(N)cc3nc2cc1N,11.6 µM,5.3 µM,7.95 µM,4.38 µM,5.93 µM,25.3 µM,3.12 µM,0.749 µM,1.64 µM,0.342 µM,1.06 µM,4.92 µM
CCCCCCCCCCCCc1ccc(C(=O)/C=C/C(=O)O)cc1,5.33 µM,20.9 µM,42.1 µM,3.3 µM,11.2 µM,24.5 µM,1.91 µM,8.15 µM,7.61 µM,1.62 µM,3.05 µM,7.78 µM
O=[N+]([O-])c1ccc(Sc2ncccn2)c([N+](=O)[O-])c1,4.19 µM,12.7 µM,18 µM,17.7 µM,13.3 µM,20.1 µM,1.27 µM,3.71 µM,3.83 µM,3.68 µM,3.16 µM,6.55 µM
NC(N)=NC(CC(=O)O)c1ccccc1 (centres undefined),> 100 µM,> 100 µM,> 100 µM,> 100 µM,> 100 µM,> 100 µM,–,–,–,–,–,–
Nc1cccc2c1C(=O)N(C1CCC(=O)NC1=O)C2=O (centres undefined),> 100 µM,> 100 µM,> 100 µM,> 100 µM,> 100 µM,> 100 µM,> 100 µM,> 100 µM,> 100 µM,> 100 µM,> 100 µM,> 100 µM
C[C@H]1[C@H](OC(=O)CCC(=O)O)O[C@@H]2O[C@]3(C)CC[C@H]4[C@H](C)CC[C@@H]1[C@@]24OO3,4.55 µM,20.1 µM,36.9 µM,20.8 µM,13.5 µM,6.15 µM,0.292 µM,6.48 µM,0.986 µM,0.698 µM,0.335 µM,0.482 µM
COc1ccccc1C(=O)/C=C/c1cc2cccc(OC)c2[nH]c1=O,1.37 µM,0.714 µM,10.8 µM,4.12 µM,–,13.6 µM,0.112 µM,0.0331 µM,0.0163 µM,0.0358 µM,–,0.0194 µM
COc1ccc(-c2cc(-c3ccc(Nc4nc(Nc5ccc(Cl)cc5)nc(Nc5ccc(Cl)cc5)n4)cc3)nc(N)c2C#N)cc1,9.11 µM,17 µM,5.68 µM,> 32.3 µM,7.53 µM,> 100 µM,3.06 µM,3.91 µM,1.48 µM,2.59 µM,2.22 µM,13.3 µM
O=C(Nc1n[nH]c2nc(-c3ccco3)c(Br)cc12)C1CC1,> 25 µM,> 25 µM,> 25 µM,> 25 µM,> 25 µM,> 25 µM,> 25 µM,> 25 µM,> 25 µM,> 7.12 µM,> 25 µM,> 25 µM
COc1cccc(NC(=O)c2sc3nc4c(cc3c2N)CCCC4)c1,25.4 µM,56.1 µM,54.6 µM,> 100 µM,0.44 µM,> 100 µM,0.497 µM,0.542 µM,0.75 µM,0.314 µM,0.15 µM,0.485 µM
O=C(c1cccs1)c1c(C(F)(F)F)n([O-])c2ccc(C(F)(F)F)cc2[n+]1=O,0.34 µM,0.576 µM,–,0.787 µM,1.19 µM,0.573 µM,0.178 µM,0.234 µM,–,0.294 µM,0.564 µM,0.219 µM
CC1(C)N=C(N)N=C(N)N1c1cccc(/C=C/C=C/c2cccc([N+](=O)[O-])c2)c1,23.8 µM,20.2 µM,34.7 µM,22.4 µM,15.2 µM,> 100 µM,6.91 µM,7.5 µM,12.9 µM,5.57 µM,2.68 µM,> 100 µM
Cc1ccc(S(=O)(=O)N2CCCSCCSCCCSCC2)cc1,> 100 µM,> 100 µM,–,> 100 µM,> 100 µM,> 100 µM,–,–,–,–,–,–
O=C1C2CC(Cl)C(SSC3CC4C(=O)N(SC(Cl)(Cl)C(Cl)Cl)C(=O)C4CC3Cl)CC2C(=O)N1SC(Cl)(Cl)C(Cl)Cl (centres undefined),3.41 µM,9.44 µM,> 22.8 µM,7.67 µM,6.23 µM,6.05 µM,–,–,–,–,–,–
Cc1ccc(S(=O)(=O)N/N=C/C(Br)=C(/Br)C(=O)O)cc1,20.7 µM,26.9 µM,45.2 µM,51 µM,18.3 µM,17.9 µM,–,–,–,–,–,–
Cc1ccc(S(=O)(=O)NC(CCC(=O)Nc2ccc(Cl)cc2)C(=O)Nc2ccc(Cl)cc2)cc1 (centres undefined),6.71 µM,9.89 µM,7.5 µM,6.51 µM,9.74 µM,7.63 µM,0.967 µM,1.2 µM,1.32 µM,0.287 µM,0.169 µM,1.03 µM
